US20250161241A1, “CYSTEAMIDES, THERAPEUTIC COMPOSITIONS THEREOF, AND RELATED METHODS” (Boyce Thompson Institute for Plant Research, Inc., priority 2022, published 2025)

What was measured:
brain-resident Tregs = assay: brain-resident Treg levels in mice after oral gavage (flow cytometry, i.v. CD45 labeling); format: in vivo, mouse; conditions: SPF mice, oral gavage 50 mg/kg/day, 14 days, vs vehicle; brain tissue; FIG. 66 top row
Experimental: (§1) Butyrate-MCY (dissolved in water) was delivered by oral gavage at a rate of 50 mg/kg body weight per day in a volume of 100 μL for two weeks.
For isolation of brain leukocyte populations, mice were euthanized with CO2 and perfused through the left ventricle with 20 mL PBS. The whole brain was removed and placed in 2.5 mL digestion buffer (PBS, 5% FCS, 1 mM HEPES) before being finely chopped. Collagenase D (Roche, 400 U) was added to the mixture, which was then incubated at 37° C. for 30 min before adding 50 μL 0.5 M EDTA, followed by a 5-min incubation. […]
(§2) All antibodies above were used at 1:200 dilutions, except FoxP3 were used at 1:100 dilutions. Stained cells were analyzed on a 5 laser, 18 color custom-configuration BD LSRFortessa (BD). Data were collected using BD FACSDiva version 9.0 and analyzed using FlowJo (version 10.7.1, Tree Star).
For functional evaluation, the previously unreported MCY conjugates of butyrate were prioritized, given that their microbiota-dependent production is conserved in humans and considering that the corresponding parent metabolite, butyrate, serves important roles in immune homeostasis. […] SPF mice were supplemented via oral gavage with butyrate-MCY (50 mg/kg/day, 100 μL/day, 14 days), which was identified in the brain and serum metabolomes and the levels of brain-resident Tregs was measured. […]

gut Tregs (colon tissue) = assay: colon (gut) Treg levels in mice after oral gavage (flow cytometry); format: in vivo, mouse; conditions: SPF mice, oral gavage 50 mg/kg/day, 14 days, vs vehicle, FIG. 66 bottom row
Experimental: as §1
Mouse colons were removed, cleaned of attached fat tissues, and washed in ice-cold PBS (Sigma-Aldrich). They were then opened longitudinally and washed again in ice-cold PBS. Dissociation of epithelial cells was performed by shaking at 37° C. in HBSS (Sigma-Aldrich) containing 10 mM HEPES, 10 mM EDTA (Thermo Fisher Scientific) and 2 mM dithiothreitol (DTT) two times for 15 min each. After each step, samples were vortexed, and the supernatant containing the epithelial fraction was removed. […]
as §2
For functional evaluation, the previously unreported MCY conjugates of butyrate were prioritized, given that their microbiota-dependent production is conserved in humans and considering that the corresponding parent metabolite, butyrate, serves important roles in immune homeostasis. […] FIG. 66 (top row) provides representative flow cytometry plots of Tregs and quantification of Tregs as percentage of all CD4+ T cells in brain tissue from vehicle or butyrate-MCY treated mice. […]

CCCC(=O)NCCSC [butyrate-MCY]
percentage of brain-resident Tregs amongst CD4+ T cells (brain-resident Tregs): significantly decreased | percentage of gut Tregs amongst CD4+ T cells (gut Tregs (colon tissue)): significantly decreased
